# According to paper PMC10203128, “Structures of human SGLT in the occluded state reveal conformational changes during sugar transport” (Nature Communications, 2023):
# Key:
# hSGLT1 = biological target: T1, hSGLT1 (Homo sapiens, UniProt P13866); assay: cryo-EM structure of the complex at […] Å; IC50 from inhibition of […]-NBD-glucose uptake in cells; type: cell-based
# T1 construct: gene SLC5A1; hSGLT1GFP-MAP17nb (three-joint-tethering construct), in lipid nanodisc; with MAP17
# T1 sequence (P13866 1-664): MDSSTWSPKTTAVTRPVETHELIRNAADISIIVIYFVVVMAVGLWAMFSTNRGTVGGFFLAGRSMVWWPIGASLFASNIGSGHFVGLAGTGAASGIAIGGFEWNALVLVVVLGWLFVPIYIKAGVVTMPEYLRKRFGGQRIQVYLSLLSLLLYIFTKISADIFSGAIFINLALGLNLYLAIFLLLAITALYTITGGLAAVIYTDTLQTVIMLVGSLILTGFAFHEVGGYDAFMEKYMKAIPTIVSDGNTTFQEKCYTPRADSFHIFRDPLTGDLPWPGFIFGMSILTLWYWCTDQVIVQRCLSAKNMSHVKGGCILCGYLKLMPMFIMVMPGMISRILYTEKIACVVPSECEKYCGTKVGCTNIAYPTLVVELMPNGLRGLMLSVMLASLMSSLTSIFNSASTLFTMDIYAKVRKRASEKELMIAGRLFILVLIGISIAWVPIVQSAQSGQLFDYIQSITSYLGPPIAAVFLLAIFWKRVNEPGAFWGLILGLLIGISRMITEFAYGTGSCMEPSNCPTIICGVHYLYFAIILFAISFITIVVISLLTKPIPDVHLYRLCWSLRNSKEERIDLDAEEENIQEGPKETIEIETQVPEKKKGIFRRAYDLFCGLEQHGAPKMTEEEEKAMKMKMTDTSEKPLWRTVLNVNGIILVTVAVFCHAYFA
# T1 sequence (Q13113 1-114 partner): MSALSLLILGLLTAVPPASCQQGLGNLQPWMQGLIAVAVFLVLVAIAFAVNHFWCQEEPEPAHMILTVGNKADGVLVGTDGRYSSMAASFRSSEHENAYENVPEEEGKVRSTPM
# hSGLT2 = biological target: T2, hSGLT2 (Homo sapiens, UniProt P31639); assay: cryo-EM structure of the complex at […] Å ([…] AMG); type: binding
# T2 construct: gene SLC5A2; hSGLT2GFP-MAP17nb, in lipid nanodisc; with MAP17
# T2 sequence (P31639 1-672): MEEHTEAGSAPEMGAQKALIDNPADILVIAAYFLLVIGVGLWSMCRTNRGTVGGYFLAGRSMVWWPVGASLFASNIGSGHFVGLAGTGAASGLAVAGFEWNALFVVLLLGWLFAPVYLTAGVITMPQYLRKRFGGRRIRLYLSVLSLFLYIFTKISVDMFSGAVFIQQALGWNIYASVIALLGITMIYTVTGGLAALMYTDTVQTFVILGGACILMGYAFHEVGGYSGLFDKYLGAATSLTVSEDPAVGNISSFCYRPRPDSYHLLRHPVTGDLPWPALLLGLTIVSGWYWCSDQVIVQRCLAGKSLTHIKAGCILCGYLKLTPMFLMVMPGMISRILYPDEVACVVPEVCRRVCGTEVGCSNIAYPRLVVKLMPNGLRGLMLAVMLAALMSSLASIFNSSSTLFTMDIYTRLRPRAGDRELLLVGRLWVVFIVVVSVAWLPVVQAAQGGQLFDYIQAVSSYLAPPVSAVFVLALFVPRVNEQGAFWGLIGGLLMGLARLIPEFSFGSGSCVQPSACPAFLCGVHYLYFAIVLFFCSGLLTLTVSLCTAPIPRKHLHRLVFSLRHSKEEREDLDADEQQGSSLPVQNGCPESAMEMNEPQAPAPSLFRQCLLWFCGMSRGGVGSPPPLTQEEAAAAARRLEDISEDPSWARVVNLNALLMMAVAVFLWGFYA
# T2 sequence (Q13113 1-114 partner): T1 sequence (Q13113 1-114 partner)
Compound,IC50 (hSGLT1) [µM],cryo-EM structure of the complex at 3.33 Å (100 mM AMG) (hSGLT2)
"OC[C@H]1OC(O)[C@H](O)[C@@H](O)[C@@H]1F (stereo partly drawn) [4D4FDG, 4-deoxy-4-fluoro-D-glucose]",~70,
"CO[C@H]1O[C@H](CO)C(O)[C@H](O)[C@H]1O (stereo in doubt) [AMG, methyl alpha-D-galactopyranoside]",,We observed that AMG is bound in an occluded substrate-binding site
